Results on 2 compounds are retold here after patent US10774046B2, “Inhibitors for the treatment of cancer and related methods” (UNIVERSITY OF LOUISVILLE RESEARCH FOUNDATION, INC., priority 2017, dated 2020).

The nature of data set [1]: two-week oral toxicity study. The data set is classed as in vivo. The settings on record: 120 mg/kg PO for two weeks. The procedure: Given the potential usefulness of oral administration in terms of cost and convenience, we elected to pursue this route in subsequent toxicity and efficacy pre-clinical studies. Initially, we dosed C57BL/6 mice with 120 mg/kg PO for two weeks and analyzed the effect on complete blood counts, electrolytes, hepatic and renal function, body mass and the gross and histological appearance of the brain, heart, lungs, liver, kidneys and spleen. […] Next, the effects of oral administration of 5MPN on intratumoral F2,6BP and glucose uptake by LLC xenografts was examined. There was a reduction in F2,6BP (FIG. 4E) and 2-[^18F]-fluoro-2-deoxyglucose uptake using positron emission tomography (FIG. 4F). It was confirmed that 5MPN caused a G1 arrest in LLC cells in vitro similar to H460 cells (FIG. 4G). The number of Ki67-positive cells was examined since Ki-67 expression correlated with later S and G2 phases of the cell cycle (SASAKI et al. “The cell cycle associated change of the Ki-67 reactive nuclear antigen expression” J Cell Physiol (1987) Vol. 133, No. 3, pp. 579-584).

A short description of data set [2]: pharmacokinetic profile after IV and oral administration. Type of data set: in vivo. The following applies: C57BL/6 mice. How it is done: The pharmacokinetic profile was determined in female C57BL/6 mice following IV and oral administration of 5MPN. Using only female mice lowered the animal numbers required for meaningful results without issues of potential gender differences in exposure. Eight time points (n=3/time point) were used to determine PK parameters calculated using WinNonLin v5.0. Plasma samples were extracted using acetonitrile and analyzed by LC/MS-MS using a PhenomexSynergi Polar-RP 4 micron 50×2.0 mm column eluted with a biphasic mobile phase (0.5% formic acid in acetonitrile and water).

In data set [3] the test system is cancer cells. As to the kind of experiment: F26BP measurement in cells. The data set is classed as cell-based. The following applies: increasing concentrations. The procedure:
Method: In order to measure F26BP, cells were exposed to increasing concentrations of Formula (VIII) and were harvested, washed with PBS, lysed in NaOH/Tris acetate by heating at 80° C. and lysates neutralized to pH 7.2. F26BP content was measured using a coupled enzyme reaction following a modified method of Van Schaftingen (VAN SCHAFTINGEN et al, “A kinetic study of pyrophosphate:fructose-6-phosphate phosphotransferase from potato tubers. Application to a microassay of fructose 2,6-bisphosphate” Eur J Biochem. (1982) Vol. 129, No. 1, pp. 191-195), which is herein incorporated by reference in its entirety. The F26BP concentration was normalized to total cellular protein measured by the bicinchoninic acid assay (BCA, Thermo Scientific).

Data set [4] relates to cancer cells. The experiment in a line: glycolysis assay (3H2O from 5-[3H]glucose). The data set is classed as cell-based. The settings on record: increasing concentrations. The procedure: Method: To examine glycolysis, cells growing in 6-well plates were incubated in 500 μl of complete medium containing 1 μCi of 5-[^3H] glucose per well for 60 min in 5% CO2 at 37° C. The medium was then collected and centrifuged to pellet any suspended cells. To separate the ^3H2O formed via glycolysis from the 5-[^3H]glucose added to the medium, an evaporation technique in a sealed system was utilized. Briefly, 150 μl aliquots of medium were added to open tubes that were placed upright inside scintillation vials containing 1 ml of H2O. The scintillation vials were sealed, and the ^3H2O produced by glycolysis through enolase and released to the medium was allowed to equilibrate with the H2O in the outer vial for 48 h at 37° C. The amounts of ^3H2O that had diffused into the surrounding H2O was measured on a Tri-Carb 2910 liquid scintillation analyzer (Perkin Elmer) and compared with ^3H2O and 5-[^3H]glucose standards. Protein concentration was determined using the BCA assay and counts were normalized to protein concentration (previously described in CHESNEY et al., “Fructose-2,6-bisphosphate synthesis by 6-phosphofructo-2-kinase/fructose-2,6-bisphosphatase 4 (PFKFB4) is required for the glycolytic response to hypoxia and tumor growth” Oncotarget (2014) Vol. 5, No. 16, pp. 6670-6686, which is herein incorporated by reference in its entirety).

As to `COc1cccc2c(NCCCCCO[N+](=O)[O-])ccnc12` [5MPN, 5-[(8-methoxyquinolin-4-yl)amino]pentyl nitrate], the “signs of toxicity (blood counts, electrolytes, hepatic and renal function, body mass, histology, behavior)” value in data set [1] is recorded as “no signs of toxicity”. For the same compound, in data set [2], the oral bioavailability entry is “has oral bioavailability”. The “concentrations reached by intravenous and oral administration” value in data set [2] (IV and oral, administered daily) is reported as “adequate to achieve potentially therapeutic concentrations”.

`COc1cccc2c(NCCCCCNC(=O)C(F)(F)F)ccnc12` [Formula (VIII), 2,2,2-trifluoro-N-(5-((8-methoxyquinolin-4-yl)amino)pentyl)acetamide]: the “F26BP (normalized to cellular protein)” value in data set [3] is “dose-dependent decrease”. In data set [4], the “glycolysis (production of 3H2O relative to DMSO)” value is given as “dose-dependent decrease”.
